The METLIN SMRT retention time set (Domingo-Almenara et al. 2019)

Assay: gradient 5% acetonitrile 3 min, to 50% in 2 min, to 85% in 15 min, held 3 min, 100 µL/min
Details: column: Zorbax Extend-C18 2.1 x 50 mm; eluents: water / acetonitrile, 0.1% formic acid
Outline: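 Retention times come from adduct peaks that were picked computationally and then checked by hand. The standards, pure and pooled in mixtures of ~100 molecules, were run on a Zorbax Extend-C18 column (2.1 × 50 mm, 1.8 μm) at 100 μL/min with water and acetonitrile, each with 0.1% formic acid. Detection was by quadrupole time-of-flight mass spectrometry in positive and negative ionization mode, with a dead volume of 40 μL and a dwell volume of 900 μL.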

| Compound | RP-LC retention time [s] |
| --- | --- |
| COc1ccc(Cl)cc1N1CC(c2nc3ccccc3n2CCN2CCOCC2)CC1=O (stereo not given) | 617 |
| COc1ccc(NC(=O)c2sc(-c3cn(C(C)C)c4ncccc34)nc2C)cc1OC | 944 |
| CCNS(=O)(=O)c1cc(-c2c(C)noc2C)ccc1C | 807 |
| O=C(C1CCCC1)N1[C@H]2CC[C@@H]1c1cnc(-c3ccc(F)cc3)nc1C2 | 984 |
| CCC(C)NC(=O)c1ccc2c(c1)Sc1ncccc1C(=O)N2C(C)C (stereo not given) | 784 |
| CCn1ccc2sc(C)c(C(=O)NCc3c(C)cc(C)cc3C)c2c1=O | 982 |
| CCc1ccccc1NC(=O)N1CC(c2nc(C)no2)C2(CCOCC2)C1 (stereo not given) | 731 |
| Cc1ccc(-n2nccn2)c(C(=O)N2CCN(c3nc4cc(Cl)ccc4o3)CC[C@H]2C)c1 | 1080 |
| O=C(C1CCCC1)N1CCN(c2cc(-c3ccccc3)[nH]n2)CC1 | 782 |
| CCN(C(=O)c1cc2c(s1)N(C)CCCC2)C(C)C | 1020 |
| COC(=O)C1=C(C)N(C2CCCCC2)C(=O)C1(NC(=O)c1ccccc1OC)C(F)(F)F (stereo not given) | 1090 |
| COc1ccc(S(=O)(=O)N2CCCC2C(N)=O)cc1 (stereo not given) | 593 |
| COc1cc(OC)cc(C2(C#N)CCN(C)CC2)c1 | 665 |
| COc1cccc(CNC(=O)C2(C)CCCN(S(=O)(=O)c3ccccc3C)C2)c1 (stereo not given) | 957 |
| CCNc1nc(C)cc(N2CCN(C(=O)Nc3ccc(C)c(C)c3)CC2)n1 | 684 |
| O=C(NCCc1c[nH]c2ccccc12)c1cccc(N2C(=O)CCS2(=O)=O)c1 | 749 |
| COc1ccc(/C=C/c2nc(NCCCN(C)C)c3ccccc3n2)cc1 | 639 |
| CCCOCCOC(=O)C1=C(C)NC2=C(C(=O)CC(C)(C)C2)C1c1cccc(OC)c1OC (stereo not given) | 875 |
| CCN(C(=O)Cc1c(C(=O)O)c(C)cn1CC)c1cc(C)ccc1C | 892 |
| CC1Oc2ccc(-c3csc(NC(=O)c4cccs4)n3)cc2NC1=O (stereo not given) | 839 |

| Compound | RP-LC retention time [s] |
| --- | --- |
| COc1ccc(NC(=O)c2ccc(-c3cncnc3)nc2)cc1 | 687 |
| CC1CC(=O)N(CC(=O)Nc2cccc(Cl)c2)c2ccccc2S1 (stereo not given) | 978 |
| Cc1cc(-c2ccc(S(=O)(=O)N3CCC(C(=O)NCc4cccs4)CC3)o2)n[nH]1 | 735 |
| Cc1ccc(CNC(=O)c2nnc(-c3ccc(S(=O)(=O)N4CCOCC4)cc3)o2)o1 | 820 |
| O=C(c1cc2ccccc2[nH]1)N1CCCn2nc(-c3cccs3)cc2C1 | 899 |
| CCOC(=O)C1CCCN(C(=O)C2c3ccccc3C(=O)N3CCc4cc(OC)c(OC)cc4C23)C1 (stereo not given) | 766 |
| COc1ccccc1N1CCN(C(=O)C2CCN(c3cnc4nccnc4c3)CC2)CC1 | 673 |
| CCc1cccc(CC)c1NC(=O)N1Cc2[nH]nc(NC(=O)c3ccc(N4CCN(C)CC4)cc3)c2C1 | 664 |
| Cc1ccccc1-c1nc(Cn2ccnc2)no1 | 609 |
| O=C(NCc1ccc(F)c(Cl)c1)c1csc(C(=O)NC2CC2)n1 | 828 |
| O=C1CCCc2nc(N3CCN(c4ncccn4)CC3)nc(Nc3ccccc3)c21 | 1110 |
| CC1=C(C(=O)N(CC(=O)NC2CCC(C)CC2)c2ccc(Cl)cc2)SCCO1 (stereo not given) | 1040 |
| CCOC(=O)c1[nH]c(C)c(C(=O)C(C)N(C(=O)c2cccc(OC)c2)C2CC2)c1C (stereo not given) | 879 |
| c1ccc2[nH]c(-c3ccncc3)nc2c1 | 624 |
| O=S(=O)(c1cccc2nsnc12)N1CCCC(Cc2noc(C3CC3)n2)C1 (stereo not given) | 923 |
| CC(C)c1ccccc1OCC(=O)Nc1cnn(C)c(=O)c1N1CCOCC1 | 955 |
| COc1ccc(NS(=O)(=O)c2cccc(-c3nc(-c4ccccc4)no3)c2)cc1OC | 1060 |
| O=C(C1CCN(c2nc(-c3ccc(Cl)cc3)no2)CC1)N1CCC(N2CCCCC2)CC1 | 701 |
| COc1ccc(C2=CC(c3ccc(OC)c(OC)c3)c3c(c4ccccc4oc3=O)O2)cc1OC (stereo not given) | 1140 |
| CCOc1cccc(-c2noc(Cn3ncn4nc(-c5ccc(Br)cc5)cc4c3=O)n2)c1 | 1310 |

Second part, the compound after the results:

| RP-LC retention time [s] | Compound |
| --- | --- |
| 927 | CCOc1ccc(C(=O)N2CCCC2c2nc(-c3ccc(OC)c(OC)c3)no2)cc1 (stereo not given) |
| 854 | CCOC(=O)c1nc(Nc2cccc(OC)c2)c2ccccc2n1 |
| 572 | Cn1ncc2c(N3CCSCC3)nc(C(=O)NCCc3ccccn3)nc21 |
| 843 | O=C(Cc1cccs1)NC(Cc1ccccc1)c1nnc(N2CCCCC2)o1 (stereo not given) |
| 731 | Cc1nc(NC2=NCN(CCc3cccs3)CN2)nc2ccccc12 |
| 629 | O=C(C1CCN(c2cncnc2N2CCOCC2)CC1)N1CCN(c2ccccc2)CC1 |
| 1140 | CC(C)c1cc(C(=O)Nc2ccc(Cl)cc2F)no1 |
| 1190 | COc1ccc(-c2noc(CCCC(=O)Nc3nc(-c4ccc(Cl)cc4)c(C)s3)n2)cc1 |
| 631 | Cc1nc([C@@H]2CN(S(=O)(=O)c3ccc(Cl)s3)C[C@H]2C(N)=O)n[nH]1 |
| 585 | O=C(NC1CCCCC1)N1CCN(CCn2c(-c3ccncc3)nc3cccnc32)CC1 |
| 562 | O=C(Nc1ccc2nnc(-c3ccc(C(=O)N4CCCCC4)cc3)n2c1)C1CCC1 |
| 728 | O=C1NCCCn2cc(S(=O)(=O)Nc3ccc(C(F)(F)F)cc3)cc21 |
| 660 | COc1ccc2[nH]cc(CCO)c2c1 |
| 592 | Cc1[nH]c(=O)[nH]c(=O)c1/C=C/C(=O)NC(CO)CC(C)C (stereo not given) |
| 886 | O=C(Cc1csc(Nc2cccc(C(F)(F)F)c2)n1)NCc1cccs1 |
| 715 | CCCNC(=O)C1CCCN(c2nc3ncn(CC(=O)NCc4ccc(C)cc4)c(=O)c3s2)C1 (stereo not given) |
| 581 | Cc1ccc(Cn2cc(-c3ccncc3)cc2C(=O)NCc2cccnc2)cc1 |
| 716 | COc1ccc(NC(=O)c2ccc(N3C(=O)CCC3=O)cc2)c([N+](=O)[O-])c1 |
| 752 | O=C(c1ccc2ccccc2n1)N1CCN(c2cc(-c3cccs3)[nH]n2)CC1 |
| 832 | O=C(c1cccc2[nH]ccc12)N1CCN(c2cc(-c3cccs3)[nH]n2)CC1 |
| 1060 | Cc1ccc(N(C)S(=O)(=O)c2ccc(-c3c(C)noc3C)cc2)cc1 |
| 712 | COCCn1ccc2nc(C)c(C(=O)NCc3ccc(SC)cc3)cc2c1=O |
| 602 | COCCNC(=O)C1CCCN(c2cnc3nc(C)c(C)nc3c2)C1 (stereo not given) |
| 611 | O=C(CNC(=O)c1ccc2c(c1)OCO2)Nc1nc2ccccc2[nH]1 |
| 626 | Cc1cnc(C)n1C1CCN(S(=O)(=O)c2ccc(C#N)cc2)CC1 |

| RP-LC retention time [s] | Compound |
| --- | --- |
| 696 | CN1C(=O)c2cccn2CC1C(=O)Nc1ccc(F)cc1F (stereo not given) |
| 673 | O=C(NCc1ccnc(N2CCSCC2)c1)Nc1ccc(F)c(Cl)c1 |
| 743 | O=C(Nc1ccccc1F)N1CCC(n2cnc3ccc(F)cc3c2=O)CC1 |
| 1080 | CCOC(=O)c1c(C)oc2nc(C)nc(NCc3ccc(OC)cc3)c12 |
| 1040 | CCCSCCCNC(=O)C1CCCN(c2nc3ccccc3n(CC)c2=O)C1 (stereo not given) |
| 1310 | COc1ccc(-c2noc(Cc3nc(-c4ccc(C)c(C)c4)cs3)n2)cc1 |
| 569 | CC(C)Oc1ccccc1CN1C[C@@H](CO)[C@H](c2ccncc2)C1 |
| 963 | CCOCCOC(=O)c1cn(-c2ccc(OC)cc2)c(=O)c2ccccc12 |
| 880 | O=C(Cn1c(=O)c2cccn2c2ccccc21)Nc1cccc(C(F)(F)F)c1 |
| 583 | O=C(Cn1c(CN2CCCCC2)nc2ccccc21)N1CCOCC1 |
| 1190 | Cc1ccc(C)c(-c2nc(-c3ccc4c(c3)oc(=O)n4C(C)C)no2)c1 |
| 1120 | CS/C(=C\c1ccc(C(=O)c2ccc(C)cc2)n1C)S(C)=O (stereo not given) |
| 955 | COc1ccc(-n2c(=O)n(C)c(=O)c3cc(C(=O)Nc4ccc(F)c(C)c4)cnc32)cc1 |
| 755 | Cn1cc(C(CNC(=O)Nc2cccc(Br)c2)c2cccnc2)c2ccccc21 (stereo not given) |
| 596 | Cc1ccc2c(Nc3ccc(F)cc3F)c(C(=O)N3CCCC3)cnc2n1 |
| 746 | O=C(c1cnccn1)N1CC(F)(F)C[C@H]1c1nc(C2CC2)no1 |
| 915 | Cn1cnc(S(=O)(=O)N2CC(Oc3ccccc3-c3nc(-c4ccccc4)no3)C2)c1 |
| 1000 | COc1ccc(-c2nc(CNC(=O)c3ccc(-c4noc(C(C)C)n4)cc3)no2)cc1 |
| 642 | COCCC(=O)Nc1cnn(-c2ncc(N3CCCC3)cn2)c1 |
| 608 | CC1CCCN(CC2CCN(C(=O)Nc3ccc(F)cc3)CC2)C1 (stereo not given) |
| 758 | CC(C)CCn1nc2c(S(=O)(=O)N3CCOCC3)cccn2c1=O |
| 1180 | CCc1nc(-n2cccc2)sc1C(=O)NC1CCC(C)CC1 (stereo not given) |
| 615 | CCn1cc(S(=O)(=O)N2CCCCC2c2nc(-c3cccnc3)n[nH]2)cn1 (stereo not given) |
| 1070 | CC(C)c1ccc(S(=O)(=O)N2CCC(C(=O)NCc3csc(-c4ccccc4)n3)CC2)cc1 |
| 760 | CC(NC(=O)C(=O)N1CCCCC1)C(c1cccs1)N1CCN(c2ccc(F)cc2)CC1 (stereo not given) |
